# Measured values taken from patent US8071535B2, “Guanidinium derivatives for improved cellular transport” (The Regents of the University of California, priority 2003, dated 2011).
# Marks after values point to notes of the source that are not given here.
# Columns and labels:
# 10T½ cells [1] = assay: Cellular uptake by FACS, 10T½ cells; format: cell-based, mouse; settings: for Enhancement of cellular uptake upon guanidinylation: relative to autofluorescence, guanidinoglycoside-BODIPY vs aminoglycoside-BODIPY; for Mean Fluorescence Intensities of Treated Cells According to FACS, 10T1/2: 0.5 μM of each compound for 1 hr, average intensity of 10,000 individual cells; for Cellular uptake (in words) / Cellular uptake / transport efficiency compared to poly-Arg peptide BODIPY-Cys(Arg)9 (5): FACS; for Cellular uptake (in words): slightly above the autofluorescence of the cell itself; for Cellular uptake / transport efficiency compared to poly-Arg peptide BODIPY-Cys(Arg)9 (5): in words
# Protocol: (§1) 10T½ cells, an adherent non-transformed mouse fibroblast cell line, were purchased from ATCC and used before their 20th passage. HeLa cells, a common human cancer cell line, were a gift from Dr. Susan S. Taylor. Both cell lines were cultured in Dulbecco's modified eagle medium containing 10% fetal bovine serum at 37° C. in an 8% CO2 environment. For each experiment, cells were seeded onto 4 cm tissue culture plates (Nunc) and allowed to grow overnight to […].
# (§2) Compounds 1-5 identified in Table 1, below (0.5-1 μM), were added to each dish and incubated at 37° C./8% CO2 for 0.5-1 hr. Cells were then washed once in PBS, trypsinized with 500 μl ATV solution (Gibco) for 3 minutes, pelleted in a fixed angle centrifuge for 5 minutes at 5,000×G, then brought up in 1 mL PBS. Each sample was quickly (within 5 minutes) analyzed on a FACS VantageSE cell sorter (Becton-Dickinson) using the 488 nm argon/krypton laser line and a 530 nm band pass emission filter. 2,000-10,000 cells were counted per sample.
# (§3) Examples of FACS histograms are presented in FIG. 3, which illustrates the fluorescence intensity versus cell count for 10,000 individual 10T½ cells following a 1 hour incubation with 0.5 μM of: (A) tobra-BODIPY (Red) and guanidine-tobra-BODIPY (White); (B) neo-BODIPY (Red) and guanidine-neo-BODIPY (White); (C) BODIPY-Cys(Arg)9 (Red), or guanidine-neo-BODIPY (White); and (D) uptake of BODIPY-Cys(Arg)9 inhibited by guanidine-neomycin B (6) at 0 μM (Red), 10 μM (Black), 200 μM (Green).
# (§4) In a typical experiment, cell cultures were treated with 0.5-5 μM of each compound for 0.5-1 hr, washed twice with buffer, cleaved with trypsin, and quantified for fluorescence at 530 nm.
# 10T½ cells [2] = assay: Competition experiment: uptake of BODIPY-Cys(Arg)9 in presence of unlabeled guanidino-neomycin B (6), FACS; format: cell-based, mouse
# Protocol: as §2, §3
# HeLa cells [3] = assay: Cellular uptake by FACS, HeLa cells; format: cell-based, human; settings: 1 μM of each compound for 0.5 hr; average intensity of 2,000 individual cells; about 10-fold higher instrumental gain than 10T1/2
# Protocol: as §1, §2, §4
# [4] = test system: Rev-Response-Element (RRE); settings: in words; cited from earlier work
# HeLa cells [5] = assay: Scanning confocal fluorescence microscopy, cellular localization; format: cell-based, human; settings: confocal cross sections of living cells; 5 μM, 30 minute treatment
# Protocol: The uptake of BODIPY-containing glycosides by two different eukaryotic cell lines was also studied using fluorescence microscopy.
# as §4
# (A) and (B) show cross-sectional images of two individual HeLa cells in solution following a 30 minute treatment with 5 μM of guanidine-neo-BODIPY and cleavage with trypsin.
# Microscopy experiments have been conducted using both fluorescein-labeled and BODIPY-labeled guanidinoglycosides. The relative intensities of individual cells, following treatment with either fluorescent aminoglycosides or guanidinoglycosides are consistent with the trends from FACS experiments.
compound,measurement,setting,value
"NC[C@H]1O[C@H](O[C@H]2[C@H](O)[C@@H](O[C@H]3O[C@H](CO)[C@@H](O)[C@H](N)[C@H]3O)[C@H](N)C[C@@H]2N)[C@H](N)C[C@@H]1O [tobramycin, reference compound]",Enhancement of cellular uptake upon guanidinylation,10T½ cells [1],approximately 10 fold
"BODIPY-Cys(Arg)9 hydrochloride (CRRRRRRRRR; N-acetyl, C-amide, BODIPY on Cys) [BODIPY-Cys (Arg)9 (5), poly-Arg transduction peptide ace-…-am labelled with BODIPY on Cys]","Mean Fluorescence Intensities of Treated Cells According to FACS, 10T1/2",10T½ cells [1],280
same,"Mean Fluorescence Intensity, 10T1/2, in presence of 10 μM (6)","10T½ cells [2]; 0.5 μM (5) + 10 μM guanidino-neomycin B (6), 1 hr",110
same,"Mean Fluorescence Intensity, 10T1/2, in presence of 50 μM (6)","10T½ cells [2]; 0.5 μM (5) + 50 μM guanidino-neomycin B (6), 1 hr",90
same,"Mean Fluorescence Intensity, 10T1/2, in presence of 200 μM (6)","10T½ cells [2]; 0.5 μM (5) + 200 μM guanidino-neomycin B (6), 1 hr",70
same,"Mean Fluorescence Intensities of Treated Cells According to FACS, HeLa",HeLa cells [3],"2,000"
"NC[C@@H]1O[C@H](O[C@H]2[C@@H](O)[C@H](O[C@@H]3[C@@H](O)[C@H](N)C[C@H](N)[C@H]3O[C@H]3O[C@H](CN)[C@@H](O)[C@H](O)[C@H]3N)O[C@@H]2CO)[C@H](N)[C@@H](O)[C@@H]1O [neomycin B, reference compound]",Enhancement of cellular uptake upon guanidinylation,10T½ cells [1],approximately 20 fold
neo-BODIPY hydrochloride [Neo-BODIPY (3)],"Mean Fluorescence Intensities of Treated Cells According to FACS, 10T1/2",10T½ cells [1],60
same,Cellular uptake (in words),10T½ cells [1],poor cellular uptakes
same,"Mean Fluorescence Intensities of Treated Cells According to FACS, HeLa",HeLa cells [3],"~1,400^(e)"
"NC(N)=NC[C@@H]1O[C@H](O[C@H]2[C@@H](O)[C@H](O[C@@H]3[C@H](O)[C@@H](N=C(N)N)C[C@@H](N=C(N)N)[C@H]3O[C@H]3O[C@H](CN=C(N)N)[C@@H](O)[C@H](O)[C@H]3N=C(N)N)O[C@@H]2CO)[C@H](N=C(N)N)[C@@H](O)[C@@H]1O [guanidine-neomycin B (6, guanidino-neomycin B]",Inhibition of the transport of BODIPY-Cys(Arg)9 into cells,"10T½ cells [2]; FACS, unlabeled competitor 10-200 μM, in words",effectively inhibits
same,Affinity to the RRE,[4],substantial affinity
guanidino-Neo-BODIPY hydrochloride [Guanidino-Neo-BODIPY (4)],"Mean Fluorescence Intensities of Treated Cells According to FACS, 10T1/2",10T½ cells [1],430
same,Cellular uptake / transport efficiency compared to poly-Arg peptide BODIPY-Cys(Arg)9 (5),10T½ cells [1],better cellular uptake
same,Cellular localization,HeLa cells [5],two distinct types of cellular localization
same,"Mean Fluorescence Intensities of Treated Cells According to FACS, HeLa",HeLa cells [3],"7,900"
tobra-BODIPY hydrochloride [Tobra-BODIPY (1)],"Mean Fluorescence Intensities of Treated Cells According to FACS, 10T1/2",10T½ cells [1],60
same,Cellular uptake (in words),10T½ cells [1],poor cellular uptakes
same,"Mean Fluorescence Intensities of Treated Cells According to FACS, HeLa",HeLa cells [3],"1,000"
guanidino-tobramycin,Affinity to the RRE,[4],substantial affinity
guainidino-tobra-BODIPY hydrochloride [Guanidino-Tobra-BODIPY (2)],"Mean Fluorescence Intensities of Treated Cells According to FACS, 10T1/2",10T½ cells [1],240
same,Cellular uptake / transport efficiency compared to poly-Arg peptide BODIPY-Cys(Arg)9 (5),10T½ cells [1],approximately the same transport efficiency
same,"Mean Fluorescence Intensities of Treated Cells According to FACS, HeLa",HeLa cells [3],"2,100"
